Measurements from US20250345295A1, “LMK235 COMPOSITIONS AND METHODS” (UNM Rainforest Innovations, priority 2024, published 2025).

System: differentially expressed genes in TG
Experiment: RNAseq gene expression profiling of TG
Assay type: in vivo, mouse
Experimental: Gene expression profiling was performed on TG from mice with/without nerve injury during the acute phase (three weeks post injury) in TIC mice and after transition to chronic pain (10 weeks post injury) in FRICT-ION mice by Quick Biology Inc. (Monrovia, CA).
Total RNA from ipsilateral TG was isolated using the Rneasy Mini Kit (Qiagen, Valencia, CA). Gene expression profiling and analysis with RNA was done by Quick Biology Inc. (Monrovia, CA). RNAseq library preparation was performed by Quick Biology Inc. (Monrovia, CA), sequencing was performed using an Illumina HiSeq 4000 at 40 million reads per sample. The reads were first mapped to the latest UCSC transcript set using Bowtie2 version 2.1.0 and the gene expression level was estimated using RSEM v1.2.15. Differentially expressed genes were identified using the edgeR program. Genes showing altered expression with p<0.05 were considered differentially expressed.

[1] = LMK235-Treated FRICT-ION Vs Naive
[2] = LMK235-Treated FRICT-ION Vs Untreated FRICT-ION
[3] = TG RNAseq, FRICT-ION mice treated with LMK235 vs naive, week 10
[4] = TG RNAseq, LMK235-treated vs untreated FRICT-ION mice

**Q.** Which results are given for `Cc1cc(C)cc(C(=O)NOCCCCCC(=O)NO)c1` [LMK235, N-[[6-(Hydroxyamino)-6-oxohexyl]oxy]-3,5-dimethyl-benzamide]?
**A.** Fold-change Arfgef2 [1]: 1.02; Fold-change Astn2 [1]: 1.04; Fold-change Bmp2 [1]: 1.11; Fold-change Bmp3 [1]: −1.23; Fold-change Bmp4 [1]: 1.18; Fold-change Bmp5 [1]: 1.85; Fold-change Cacna1a [1]: −1.06; Fold-change Cacna1g [1]: −1.00; Fold-change Cacna1i [1]: −1.14; Fold-change Cacna1h [1]: −1.11; Fold-change Cacna1d [1]: −1.03; Fold-change Cacnb1 [1]: −1.02; Fold-change Clcn1 [1]: −1.33; Fold-change Clcn2 [1]: −1.11; Fold-change Clic5 [1]: −1.08; Fold-change Eef2 [1]: −1.05; Fold-change Gabra5 [1]: 1.02; Fold-change Gabra6 [1]: 1.18; Fold-change Gabre [1]: −1.22; Fold-change Gabrg1 [1]: 1.26; Fold-change Jakmip1 [1]: 1.02; Fold-change Kcna5 [1]: −1.06; Fold-change Kcnc3 [1]: −1.05; Fold-change Kcnd2 [1]: 1.09; Fold-change Kcnh2 [1]: −1.06; Fold-change Kcnh7 [1]: 1.03; Fold-change Kcnj6 [1]: −1.10; Fold-change Kcnk1 [1]: −1.02; Fold-change Kcns2 [1]: 1.12; Fold-change Kcnv1 [1]: 1.26; Fold-change Kif1b [1]: 1.01; Fold-change Maoa [1]: 1.08; Fold-change Mapk3 [1]: −1.02; Fold-change Mpz [1]: 1.07; Fold-change Nacc2 [1]: −1.05; Fold-change Nav3 [1]: 1.12; Fold-change Ncald [1]: 1.05; Fold-change Ndnf [1]: 1.31; Fold-change Net1 [1]: −1.11; Fold-change Neurod4 [1]: −1.13; Fold-change Nf2 [1]: −1.02; Fold-change Nfasc [1]: −1.09; Fold-change Ngef [1]: −1.06; Fold-change Nkain2 [1]: 1.05; Fold-change Nova1 [1]: 1.04; Fold-change Nras [1]: −1.00; Fold-change Nrep [1]: 1.04; Fold-change Nrg2 [1]: 1.04; Fold-change Nrg3 [1]: 1.09; Fold-change Nrp2 [1]: 1.07; Fold-change Ntrk1 [1]: −1.09; Fold-change Nts [1]: 1.18; Fold-change Plcl1 [1]: 1.12; Fold-change Scn2a1 [1]: 1.10; Fold-change Scn3a [1]: 1.11; Fold-change Scn5a [1]: 1.23; Fold-change Scn7a [1]: 1.07; Fold-change Scn8a [1]: −1.07; Fold-change Scn9a [1]: 1.01; Fold-change Slc6a4 [1]: −1.11; Fold-change Trak1 [1]: −1.05; Fold-change Trpc6 [1]: −1.08; Fold-change Trpm2 [1]: −1.10; Fold-change Trpm3 [1]: 1.12; Fold-change Trpm4 [1]: −1.14; Fold-change Trpm7 [1]: 1.10; Fold-change Trps1 [1]: 1.14; Fold-change Trpv4 [1]: 2.12; Fold-change Trpv6 [1]: −1.07; Fold-change Unc80 [1]: 1.07; Fold-change Arfgef2 [2]: 1.01; Fold-change Astn2 [2]: 1.0; Fold-change Bmp2 [2]: −1.02; Fold-change Bmp3 [2]: −2.70; Fold-change Bmp4 [2]: 1.05; Fold-change Bmp5 [2]: −1.01; Fold-change Cacna1a [2]: −1.16; Fold-change Cacna1g [2]: −1.43; Fold-change Cacna1i [2]: −1.39; Fold-change Cacna1h [2]: −1.49; Fold-change Cacna1d [2]: −1.04; Fold-change Cacnb1 [2]: −1.13; Fold-change Clcn1 [2]: −1.05; Fold-change Clcn2 [2]: 1.01; Fold-change Clic5 [2]: −1.05; Fold-change Eef2 [2]: 1.01; Fold-change Gabra5 [2]: −1.23; Fold-change Gabra6 [2]: 2.08; Fold-change Gabre [2]: 1.10; Fold-change Gabrg1 [2]: 1.14; Fold-change Jakmip1 [2]: −1.10; Fold-change Kcna5 [2]: −1.41; Fold-change Kcnc3 [2]: −1.04; Fold-change Kcnd2 [2]: −1.00; Fold-change Kcnh2 [2]: −1.04; Fold-change Kcnh7 [2]: −1.19; Fold-change Kcnj6 [2]: −1.38; Fold-change Kcnk1 [2]: 1.05; Fold-change Kcns2 [2]: −1.25; Fold-change Kcnv1 [2]: 1.09; Fold-change Kif1b [2]: 1.01; Fold-change Maoa [2]: 1.14; Fold-change Mapk3 [2]: −1.00; Fold-change Mpz [2]: −1.05; Fold-change Nacc2 [2]: −1.00; Fold-change Nav3 [2]: −1.19; Fold-change Ncald [2]: 1.03; Fold-change Ndnf [2]: 1.06; Fold-change Net1 [2]: 1.12; Fold-change Neurod4 [2]: 1.57; Fold-change Nf2 [2]: 1.04; Fold-change Nfasc [2]: −1.02; Fold-change Ngef [2]: −1.34; Fold-change Nkain2 [2]: −1.14; Fold-change Nova1 [2]: 1.04; Fold-change Nras [2]: −1.03; Fold-change Nrep [2]: 1.01; Fold-change Nrg2 [2]: 1.10; Fold-change Nrg3 [2]: −1.00; Fold-change Nrp2 [2]: 1.07; Fold-change Ntrk1 [2]: 1.80; Fold-change Nts [2]: −1.74; Fold-change Plcl1 [2]: 1.13; Fold-change Scn2a1 [2]: −1.04; Fold-change Scn3a [2]: −1.01; Fold-change Scn5a [2]: 1.01; Fold-change Scn7a [2]: −1.07; Fold-change Scn8a [2]: 1.05; Fold-change Scn9a [2]: 1.29; Fold-change Slc6a4 [2]: 4.38; Fold-change Trak1 [2]: −1.01; Fold-change Trpc6 [2]: 1.08; Fold-change Trpm2 [2]: −1.02; Fold-change Trpm3 [2]: 1.19; Fold-change Trpm4 [2]: 1.05; Fold-change Trpm7 [2]: 1.06; Fold-change Trps1 [2]: 1.03; Fold-change Trpv4 [2]: 1.21; Fold-change Trpv6 [2]: −1.19; Fold-change Unc80 [2]: 1.10; Fold change S100a9 (TG RNAseq, FRICT-ION + LMK235 VS FRICT-ION): −2.74; C1q14 RNA level vs naïve [3]: not significantly different from naïve mice; Crhbp RNA level vs naïve [3]: not significantly different form naïve controls; P2rx4 RNA level vs naïve [3]: not different from naïves; Slfn4 RNA level vs naïve [3]: not different from naïve controls; P2rx7 foldchanges (TG RNAseq, LMK235-treated and untreated FRICT-ION mice): minimal and insignificant foldchanges; Bmp2 downregulated, fold [4]: 1.02 fold; Bmp3 downregulated, fold [4]: 2.70 fold; Bmp4 expression change [4]: not affected; Bmp5 downregulated, fold [4]: 1.01 fold; Cacna1a downregulated, fold [4]: 1.16 fold; Cacna1 downregulated, fold [4]: 1.39 fold; Cacna1g downregulated, fold [4]: 1.43 fold; Cacna1h downregulated, fold [4]: 1.49 fold; Cacna1d downregulated, fold [4]: 1.04 fold; CacnbI downregulated, fold [4]: 1.13 fold; Clcn2 upregulated, fold [4]: 1.01 fold; Kcna5 downregulated, fold [4]: 1.41 fold; Kcnd2 downregulated, fold [4]: 1.00 fold; Kcne2 reduced, fold (insignificant) [4]: 1.56 fold; Kcnh7 downregulated, fold [4]: 1.19 fold; Kcnj6 downregulated, fold [4]: 1.38 fold; Kcnk1 upregulated, fold [4]: 1.05 fold; Kcns2 downregulated, fold [4]: 1.25 fold; Maoa upregulated, fold [4]: 1.14 fold; Mpz downregulated, fold [4]: 1.05 fold
